Paper PMC8795677 (Frontiers in Chemistry, 2022)
“Also recorded” adds a separate entry of the source.

How the values were obtained:
[1] = biological target: T1, mGlu1 V405H/D322C/D324H (HCH) mutant (Rattus norvegicus, UniProt P23385, D322C/D324H/V405H); assay: Fluorescent Ca2+ imaging in transfected HEK293 cells, HCH mutant; assay type: cell-based; settings: for activation of HCH mutant (Δratio): secondary screening, 3 μM metal ion or complex
T1 construct: expressed in transfected cells; host or cells: HEK293

mGlu1(N264H) mutant [2] = biological target: T2, mGlu1(N264H) mutant (Rattus norvegicus, UniProt P23385, N264H); parameters: method as in Ojima et al., 2021; settings: previously reported; ref Ojima et al., 2021; cited from earlier work
T2 construct: expressed in transfected cells; host or cells: HEK293

[3] = biological target: T3, mGlu1 V405C/D322H/D324H (CHH) mutant (Rattus norvegicus, UniProt P23385, D322H/D324H/V405C); assay: Fluorescent Ca2+ imaging in transfected HEK293 cells, CHH mutant; assay type: cell-based; settings: secondary screening, 3 μM metal ion or complex
T3 construct: expressed in transfected cells; host or cells: HEK293

mGlu1 Q73H/D324H mutant = biological target: T4, mGlu1 Q73H/D324H mutant (Rattus norvegicus, UniProt P23385, D324H/Q73H); assay: Fluorescent Ca2+ imaging in transfected HEK293 cells, Q73H/D324H mutant; assay type: cell-based; settings: 1 μM CuCl2
T4 construct: expressed in transfected cells; host or cells: HEK293

WT mGlu1 = biological target: T5, WT mGlu1 (Rattus norvegicus, UniProt P23385); assay: Fluorescent Ca2+ imaging (Fura-2) in transfected HEK293 cells, WT mGlu1; assay type: cell-based; settings: at the concentration of the mutant's EC50 (1.5 µM Cu^2+; 0.44 µM Zn^2+)
T5 construct: expressed in transfected cells; host or cells: HEK293

mGlu1(N264H) mutant [4] = biological target: T2, mGlu1(N264H) mutant; assay: Fluorescent Ca2+ imaging in transfected HEK293 cells, N264H mutant; assay type: cell-based; settings: for activation of N264H mutant (Δratio): heat map: 3 μM metal ion or complex
mGlu1 E325C mutant = biological target: T6, mGlu1 E325C mutant (Rattus norvegicus, UniProt P23385, E325C); assay: Fluorescent Ca2+ imaging in transfected HEK293 cells, E325C mutant; assay type: cell-based; settings: for activation / metal selectivity of E325C mutant (Δratio): heat map: 3 μM metal ion or complex
T6 construct: expressed in transfected cells; host or cells: HEK293

mGlu1 D324H/E325C mutant = biological target: T7, mGlu1 D324H/E325C mutant (Rattus norvegicus, UniProt P23385, D324H/E325C); assay: Fluorescent Ca2+ imaging in transfected HEK293 cells, D324H/E325C mutant; assay type: cell-based; settings: 1 μM CuCl2
T7 construct: expressed in transfected cells; host or cells: HEK293

mGlu1 E72A/E325C mutant = biological target: T8, mGlu1 E72A/E325C mutant (Rattus norvegicus, UniProt P23385, E325C/E72A); assay: Fluorescent Ca2+ imaging in transfected HEK293 cells, E72A/E325C mutant; assay type: cell-based; settings: 1 μM CuCl2, compared with E325C
T8 construct: expressed in transfected cells; host or cells: HEK293

[5] = biological target: T9, mGlu1 Q73H/D324H/E325C mutant (Rattus norvegicus, UniProt P23385, D324H/E325C/Q73H); assay: Fluorescent Ca2+ imaging in transfected HEK293 cells, Q73H/D324H/E325C mutant; assay type: cell-based; settings: for activation of Q73H/D324H/E325C mutant (Δratio): primary screening, 3 μM metal ion or complex
T9 construct: expressed in transfected cells; host or cells: HEK293

mGlu1 H55F/E325C mutant = biological target: T10, mGlu1 H55F/E325C mutant (Rattus norvegicus, UniProt P23385, E325C/H55F); assay: Fluorescent Ca2+ imaging in transfected HEK293 cells, H55F/E325C mutant; assay type: cell-based; settings: 1 μM CuCl2, compared with E325C
T10 construct: expressed in transfected cells; host or cells: HEK293

mGlu1 Q73H/E325C mutant = biological target: T11, mGlu1 Q73H/E325C mutant (Rattus norvegicus, UniProt P23385, E325C/Q73H); assay: Fluorescent Ca2+ imaging in transfected HEK293 cells, Q73H/E325C mutant; assay type: cell-based; settings: 1 μM CuCl2
T11 construct: expressed in transfected cells; host or cells: HEK293

mGlu1 Q73A/E325C mutant = biological target: T12, mGlu1 Q73A/E325C mutant (Rattus norvegicus, UniProt P23385, E325C/Q73A); assay: Fluorescent Ca2+ imaging in transfected HEK293 cells, Q73A/E325C mutant; assay type: cell-based; settings: 1 μM CuCl2, compared with E325C
T12 construct: expressed in transfected cells; host or cells: HEK293

[6] = biological target: T13, mGlu1 V405H/D322H/D324C (HHC) mutant (Rattus norvegicus, UniProt P23385, D322H/D324C/V405H); assay: Fluorescent Ca2+ imaging in transfected HEK293 cells, HHC mutant; assay type: cell-based; settings: primary screening, 3 μM metal ion or complex
T13 construct: expressed in transfected cells; host or cells: HEK293

mGlu1 V405H/D322C mutant = biological target: T14, mGlu1 V405H/D322C mutant (Rattus norvegicus, UniProt P23385, D322C/V405H); assay: Fluorescent Ca2+ imaging in transfected HEK293 cells, V405H/D322C mutant; assay type: cell-based; settings: compared with HCH mutant
T14 construct: expressed in transfected cells; host or cells: HEK293

mGlu1 D322C/D324H mutant = biological target: T15, mGlu1 D322C/D324H mutant (Rattus norvegicus, UniProt P23385, D322C/D324H); assay: Fluorescent Ca2+ imaging in transfected HEK293 cells, D322C/D324H mutant; assay type: cell-based; settings: compared with HCH mutant
T15 construct: expressed in transfected cells; host or cells: HEK293

mGlu1 V405H/D324H mutant = biological target: T16, mGlu1 V405H/D324H mutant (Rattus norvegicus, UniProt P23385, D324H/V405H); assay: Fluorescent Ca2+ imaging in transfected HEK293 cells, V405H/D324H mutant; assay type: cell-based; settings: compared with HCH mutant
T16 construct: expressed in transfected cells; host or cells: HEK293

[7] = biological target: T17, mGlu1 H55/P58H/N264C mutant (Rattus norvegicus, UniProt P23385, N264C/P58H); assay: Fluorescent Ca2+ imaging in transfected HEK293 cells, H55/P58H/N264C mutant; assay type: cell-based; settings: primary screening, 3 μM metal ion or complex
T17 construct: expressed in transfected cells; host or cells: HEK293
T17 sequence (P23385 19-1199 P58H/N264C): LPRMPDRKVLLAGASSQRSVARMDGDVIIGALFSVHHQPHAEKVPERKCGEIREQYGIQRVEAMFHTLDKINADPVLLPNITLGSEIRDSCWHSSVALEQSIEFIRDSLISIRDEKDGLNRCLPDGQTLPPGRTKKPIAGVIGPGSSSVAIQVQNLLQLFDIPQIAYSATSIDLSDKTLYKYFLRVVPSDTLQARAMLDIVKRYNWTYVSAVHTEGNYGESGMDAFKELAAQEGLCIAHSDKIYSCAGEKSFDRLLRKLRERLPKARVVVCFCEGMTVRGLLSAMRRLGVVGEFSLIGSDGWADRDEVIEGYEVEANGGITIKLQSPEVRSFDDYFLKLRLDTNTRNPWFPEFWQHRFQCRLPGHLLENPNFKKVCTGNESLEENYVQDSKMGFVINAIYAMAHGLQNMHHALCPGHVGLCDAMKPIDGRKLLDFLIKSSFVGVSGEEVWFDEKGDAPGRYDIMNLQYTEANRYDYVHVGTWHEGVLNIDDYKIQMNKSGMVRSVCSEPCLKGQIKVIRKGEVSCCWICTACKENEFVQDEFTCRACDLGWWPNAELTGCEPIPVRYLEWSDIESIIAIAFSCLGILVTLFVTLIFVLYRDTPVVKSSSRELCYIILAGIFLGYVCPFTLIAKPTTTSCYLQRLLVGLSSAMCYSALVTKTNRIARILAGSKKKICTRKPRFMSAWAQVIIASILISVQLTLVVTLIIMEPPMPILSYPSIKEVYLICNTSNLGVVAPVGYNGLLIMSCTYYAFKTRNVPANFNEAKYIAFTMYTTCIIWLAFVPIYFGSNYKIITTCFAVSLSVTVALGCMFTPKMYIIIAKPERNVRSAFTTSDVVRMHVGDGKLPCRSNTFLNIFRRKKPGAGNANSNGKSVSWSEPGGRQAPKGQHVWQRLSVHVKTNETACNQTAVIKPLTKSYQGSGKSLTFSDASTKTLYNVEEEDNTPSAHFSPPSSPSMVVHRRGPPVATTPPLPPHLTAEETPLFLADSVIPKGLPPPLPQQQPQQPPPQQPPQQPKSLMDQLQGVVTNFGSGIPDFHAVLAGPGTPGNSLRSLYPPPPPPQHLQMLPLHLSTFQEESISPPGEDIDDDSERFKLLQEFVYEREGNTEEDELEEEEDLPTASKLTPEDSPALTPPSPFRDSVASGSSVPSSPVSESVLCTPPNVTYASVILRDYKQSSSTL

T6 sequence (P23385 19-1199 E325C): as the sequence (P23385 19-1199 P58H/N264C) above, with H40P, C246N, E307C counted along it
T9 sequence (P23385 19-1199 Q73H/D324H/E325C): as the sequence (P23385 19-1199 P58H/N264C) above, with H40P, Q55H, C246N, D306H, E307C counted along it
T2 sequence (P23385 19-1199 N264H): as the sequence (P23385 19-1199 P58H/N264C) above, with H40P, C246H counted along it
T13 sequence (P23385 19-1199 D322H/D324C/V405H): as the sequence (P23385 19-1199 P58H/N264C) above, with H40P, C246N, D304H, D306C, V387H counted along it
T3 sequence (P23385 19-1199 D322H/D324H/V405C): as the sequence (P23385 19-1199 P58H/N264C) above, with H40P, C246N, D304H, D306H, V387C counted along it
T1 sequence (P23385 19-1199 D322C/D324H/V405H): as the sequence (P23385 19-1199 P58H/N264C) above, with H40P, C246N, D304C, D306H, V387H counted along it
T5 sequence (P23385 19-1199): as the sequence (P23385 19-1199 P58H/N264C) above, with H40P, C246N counted along it
T11 sequence (P23385 19-1199 Q73H/E325C): as the sequence (P23385 19-1199 P58H/N264C) above, with H40P, Q55H, C246N, E307C counted along it
T8 sequence (P23385 19-1199 E72A/E325C): as the sequence (P23385 19-1199 P58H/N264C) above, with H40P, E54A, C246N, E307C counted along it
T7 sequence (P23385 19-1199 D324H/E325C): as the sequence (P23385 19-1199 P58H/N264C) above, with H40P, C246N, D306H, E307C counted along it
T4 sequence (P23385 19-1199 Q73H/D324H): as the sequence (P23385 19-1199 P58H/N264C) above, with H40P, Q55H, C246N, D306H counted along it
T16 sequence (P23385 19-1199 D324H/V405H): as the sequence (P23385 19-1199 P58H/N264C) above, with H40P, C246N, D306H, V387H counted along it
T15 sequence (P23385 19-1199 D322C/D324H): as the sequence (P23385 19-1199 P58H/N264C) above, with H40P, C246N, D304C, D306H counted along it
T14 sequence (P23385 19-1199 D322C/V405H): as the sequence (P23385 19-1199 P58H/N264C) above, with H40P, C246N, D304C, V387H counted along it
T10 sequence (P23385 19-1199 H55F/E325C): as the sequence (P23385 19-1199 P58H/N264C) above, with H37F, H40P, C246N, E307C counted along it
T12 sequence (P23385 19-1199 Q73A/E325C): as the sequence (P23385 19-1199 P58H/N264C) above, with H40P, Q55A, C246N, E307C counted along it

activation of CHH mutant (Δratio) [3] | activation of WT mGlu1 in dose dependency (WT mGlu1) | activation of N264H mutant (Δratio) (mGlu1(N264H) mutant [4]) | activation / metal selectivity of E325C mutant (Δratio) (mGlu1 E325C mutant) | Compound | activation of HCH mutant (Δratio) [1] | activation of mGlu1(N264H) mutant (mGlu1(N264H) mutant [2]) | activation of Q73H/D324H/E325C mutant (Δratio) [5] | activation of V405H/D322H/D324C (HHC) mutant (Δratio) [6] | also measured
strongly activated | not activated | not activated | high selectivity | [Cu+2] [Cu^2+, CuCl2] | not activated at all; also recorded: insensitive | failed to activate | strongly activated | – | Cu^2+-induced response (Δratio) of Q73H/D324H mutant (mGlu1 Q73H/D324H mutant): loss in sensitivity; Cu^2+-induced response (Δratio) of E325C single mutant (mGlu1 E325C mutant; 1 μM CuCl2): maintained; EC50 (mGlu1 E325C mutant; HEK293 cells, E325C mutant, dose dependency, read-out: EC50 of activation (Δratio, [Ca2+]i)): 220 nM; activation of E325C mutant by Cu^2+ in the co-presence of Pd (bpy) (mGlu1 E325C mutant; [CuCl2] = 1 μM, [Pd(bpy)] = 3 μM): impaired; cell-specific activation of E325C-expressing cells in mixed culture (mGlu1 E325C mutant; three HEK293 cell types on one coverslip, sequential perfusion 60 s, 1 μM CuCl2): selectively activated; Cu^2+-induced response (Δratio) of D324H/E325C mutant (mGlu1 D324H/E325C mutant): prominent Cu^2+-induced responses; Cu^2+-induced response (Δratio) of E72A/E325C mutant (mGlu1 E72A/E325C mutant): drastically decreased; EC50 ([5]; HEK293 cells, Q73H/D324H/E325C mutant, dose dependency, read-out: EC50 of activation (Δratio, [Ca2+]i)): 1500 nM; Cu^2+-induced response (Δratio) of H55F/E325C mutant (mGlu1 H55F/E325C mutant): drastically decreased; Cu^2+-induced response (Δratio) of Q73H/E325C mutant (mGlu1 Q73H/E325C mutant): prominent Cu^2+-induced responses; sensitivity to Cu^2+ (Δratio) of Q73A/E325C mutant (mGlu1 Q73A/E325C mutant): slightly affected
strongly activated | – | – | – | [Pd+2] [Pd^2+] | – | failed to activate | – | – | –
strongly activated | not activated at all | not activated | not activated | [Zn+2] [Zn^2+, ZnCl2] | activated strongly | failed to activate | – | – | Zn^2+-induced response (Δratio) of V405H/D322C mutant (mGlu1 V405H/D322C mutant): significantly impaired; EC50 ([1]; HEK293 cells, HCH mutant, dose dependency, read-out: EC50 of activation (Δratio, [Ca2+]i)): 440 nM; activation of HCH mutant by Zn^2+ in the co-presence of Cu^2+ ([1]; [ZnCl2] = 3 μM, [CuCl2] = 1 μM): impaired; cell-specific activation of HCH-expressing cells in mixed culture ([1]; three HEK293 cell types on one coverslip, sequential perfusion 60 s, 3 μM ZnCl2): selectively activated; Zn^2+-induced response (Δratio) of D322C/D324H mutant (mGlu1 D322C/D324H mutant): significantly impaired; Zn^2+-induced response (Δratio) of V405H/D324H mutant (mGlu1 V405H/D324H mutant): significantly impaired

The remaining lines, values behind:

Compound | activation of CHH mutant (Δratio) [3] | activation of WT mGlu1 in dose dependency (WT mGlu1) | activation of N264H mutant (Δratio) (mGlu1(N264H) mutant [4]) | activation / metal selectivity of E325C mutant (Δratio) (mGlu1 E325C mutant) | activation of HCH mutant (Δratio) [1] | activation of mGlu1(N264H) mutant (mGlu1(N264H) mutant [2]) | activation of Q73H/D324H/E325C mutant (Δratio) [5] | activation of V405H/D322H/D324C (HHC) mutant (Δratio) [6] | also measured
[Cd+2] [Cd^2+] | – | – | – | – | moderately | failed to activate | – | – | –
[Ni+2] [Ni^2+] | strongly activated | – | – | – | moderately | failed to activate | moderate sensitivity | showed sensitivity; also recorded: activated | –
Pd-2,2′-bipyridine [Pd (bpy)] | – | – | selectively activated | not activated | not activated at all; also recorded: insensitive | selective activation | not activated | activated | activation of H55/P58H/N264C mutant (Δratio) [7]: activated; activation of N264H mutant by Pd(bpy) in the co-presence of Cu2+ or Zn2+ (mGlu1(N264H) mutant [4]; [Pd(bpy)] = 3 μM, [CuCl2] = 1 μM, [ZnCl2] = 3 μM): did not affect; cell-specific activation of N264H-expressing cells in mixed culture (mGlu1(N264H) mutant [4]; three HEK293 cell types on one coverslip, sequential perfusion 60 s, 3 μM Pd (bpy)): selectively activated
